Laboratory results published in EP0528486A2, “Non-substrate inhibitors of farnesyl protein transferase” (MERCK & CO. INC., priority 1991, dated 1993).
Where a SMILES comes first, the peptide text is derived from it.

Tests used:
Type in all cases: biochemical, bovine
[1] = molecular target: T1, farnesyl-protein transferase (Bos taurus, UniProt P29702+P49355); experiment: Tetrapeptides tested as farnesylation substrates (TLC / autoradiography); conditions: for Farnesylation Substrate: peptide 200 µM, partially pure bovine farnesyl-protein transferase, 0.5 µM [3H] FPP, 30 min. at 30°C
T1 construct: partially pure bovine brain farnesyl-protein transferase; from tissue; host or cells: bovine brain (cerebral lobes)
From the text: When a peptide was used as the acceptor substrate, there were two changes to the assay: (1) Ras protein was excluded and, (2) the reactions were stopped by the additon of one tenth volume of 0.5 M EDTA. A portion of the reaction mixture was spotted onto a TLC plate (silica gel 60 thin layer chromatography plates (20 cm x 20 cm, 0.25 mm layer thickness) were from E. Merck (Darrnstadt) and eluted with either ethyl acetate:pyridine: acetic acid:water (10:5:1:3) or n-propanol:water (7:3) elution systems. After drying under vacuum, the plates were sprayed with En³Hance and exposed to X-ray film at -70°C.
CAAX tetrapeptides and other tetrapeptides including Cys-Xaa¹-Xaa²-Xaa³-NRR¹ were tested as farnesylation substrates using [³H]FPP and partially pure bovine brain farnesyl-protein transferase. […] Thin layer chromatography (TLC) conditions were developed which resolved the substrates farnesyl diphosphate (Rf = 0.06) and CVLS (Rf = 0.28) and product S-farnesyl-CVLS (Rf = 0.58). These Rf values reflect TLC conditions using ethylacetate:pyridine: acetic acid:water (10:5:1:3) as the eluent. In another elution system, n-propanol:water (7:3), farnesyl-diphosphate (Rf= 0.18) was readily seperated from farnesylated tetrapeptides (examples: CAIS (Rf=0.84) and CAIM (Rf=0.83)). Quenched reaction mixtures containing peptide, farnesyl-diphosphate and farnesyl-protein transferase were separated by TLC followed by visualization of the radioactive species by autoradiography. […] Control peptides having a Cys to Ser substitution were not substrates.
The indicated peptides at 200 µM were incubated with partially pure bovine farnesyl-protein transferase and 0.5 µM [3H] FPP for 30 min. at 30°C. Autoradiographic exposure time was overnight (15-20 hr).

[2] = molecular target: T1, farnesyl-protein transferase; experiment: Inhibition of Ras farnesylation in vitro; conditions: Ras-CVLS at 3.5 µM, 0.25 µM [³H]FPP, partially purified enzyme; average of 2-5 determinations; read-out: IC₅₀
Procedure: Polyisoprenylation of Ras- [³H]Farnesyl diphosphate (FPP) (20 Ci/mmol) was purchased from New England Nuclear. Farnesyl-protein transferase activity assays were carried out at 30°C unless noted otherwise. A typical reaction contained (in a final volume of 50 µl):[³H]farnesyl diphosphate, Ras protein (3.5µM), 50 mM HEPES, pH 7.5, 5 mM MgCl₂ 5 mM dithiothreitol and farnesyl-protein transferase. After thermally pre-equilibrating the assay mixture in the absence of enzyme, reactions were initiated by the addition of farnesyl-protein transferase and stopped at timed intervals by the addition of 1M HCl in ethanol (1 mL). The quenched reactions were allowed to stand for 15 minutes (to complete the precipitation process). After adding 2 mL of 100% ethanol, the reactions were vacuum-filtered through Whatmann GF/C filters. Filters were washed four time with 2 mL aliquots of 100% ethanol, mixed with scintillation fluid (10 mL) and then counted in a Beckmann LS3801 scintillation couter.
For inhibition studies, assays were run as described above, except putative inhibitors were added at the concentration indicated, IC₅₀ values were determined with both farnesyl-protein transferase substrates at their KM concentrations. The KM for Ras protein substrate having the CAAX sequence, CVLS, is 3.5 µM and the KM for FPP is 0.25µM.
Ras proteins used as substrates were expressed in E. coli and purified. […]

[3] = molecular target: T1, farnesyl-protein transferase; experiment: Mechanism of inhibition using homogenous, pure farnesyl-protein transferase
Procedure: To prepare pure enzyme, the nonapeptide, […], was covalently bound to Affigel-10 under anhydrous conditions as described by the manufacturer (15 µmol peptide per 1 mL of Affigel-10). Unreacted resin was treated with ethanolamine. After multiple passes of ω-aminooctyl-agarose-column-purified protein over the peptide column, the column was washed and eluted as described by Reiss, et al., (1990) ibid, to recover farnesyl-protein transferase activity.

Farnesylation Substrate [1]	IC50 [2] [µM]	farnesylation substrate (result in words, TLC autoradiography) ([1]; [³H]FPP, partially pure bovine brain farnesyl-protein transferase)	mechanism of inhibition with respect to Ras-CVLS protein substrate [3]	mechanism of inhibition with respect to farnesyl diphosphate [3]	SMILES
- (< 1% conversion)	2.3				CSCC[C@H](NC(=O)[C@H](Cc1ccccc1)NC(=O)[C@@H](NC(=O)[C@@H](N)CS)C(C)C)C(N)=O [CVFM-NH₂, Cys-Val-Phe-Met-NH₂] (H-CVFM-NH2)
- (< 1% conversion)	16	do not serve as effective substrates	competitive inhibitor	not a competitive inhibitor	CC(C)C[C@H](NC(=O)[C@@H](NC(=O)[C@@H](N)CS)C(C)C)C(=O)N[C@@H](CO)C(N)=O [CVLS-NH₂, Cys-Val-Leu-Ser-NH₂] (H-CVLS-NH2)
